Data as given in the NIST ThermoML archive (doi:10.1016/j.tca.2006.04.022).

Assay: molar heat capacity at constant pressure
Details: 101.33 kPa, Vacuum adiabatic calorimetry

CCOS(=O)(=O)[O-].CCn1cc[n+](C)c1 [1-ethyl-3-methylimidazolium ethyl sulfate]
Details	molar heat capacity at constant pressure [J/K/mol]
79.23 K, Glass	127.8
79.7 K, Glass	128.6
80.51 K, Glass	129.4
81.67 K, Glass	130.9
82.84 K, Glass	131.5
83.99 K, Glass	133.2
85.31 K, Glass	135.2
86.78 K, Glass	136.3
88.25 K, Glass	137.9
89.7 K, Glass	138.8
91.13 K, Glass	141.2
92.56 K, Glass	142.2
93.97 K, Glass	143.4
95.39 K, Glass	145.2
96.79 K, Glass	146.4
98.17 K, Glass	147.5
99.54 K, Glass	149.6
100.91 K, Glass	151
102.27 K, Glass	151.6
103.61 K, Glass	152.9
104.96 K, Glass	154.3
106.29 K, Glass	155.3
107.62 K, Glass	155.8
108.95 K, Glass	157.3
110.26 K, Glass	158.3
111.57 K, Glass	159.1
112.87 K, Glass	160.6
114.17 K, Glass	162.4
115.46 K, Glass	163.1
116.74 K, Glass	163.6
118.02 K, Glass	165.2
119.29 K, Glass	166.8
120.55 K, Glass	167.9
121.82 K, Glass	168.9
123.06 K, Glass	170.1
124.32 K, Glass	170.7
125.55 K, Glass	172.1
126.8 K, Glass	173.9
128.22 K, Glass	174.7
129.84 K, Glass	176.7
131.45 K, Glass	178.2
133.04 K, Glass	178.9
134.63 K, Glass	180
136.21 K, Glass	181.3
137.77 K, Glass	183.2
139.34 K, Glass	184.6
140.89 K, Glass	185.1
142.73 K, Glass	187.4
144.86 K, Glass	189.6
146.97 K, Glass	191.6
149.07 K, Glass	194.6
151.16 K, Glass	196.7
153.21 K, Glass	198.7
155.27 K, Glass	200.9
157.3 K, Glass	202.8
159.33 K, Glass	203.6
161.34 K, Glass	205.9
163.34 K, Glass	208.6
165.33 K, Glass	210.2
167.3 K, Glass	212.6
169.27 K, Glass	214.9
171.23 K, Glass	216.9
173.18 K, Glass	218.1
175.11 K, Glass	220.4
177.05 K, Glass	223.2
178.98 K, Glass	226
180.91 K, Glass	229.3
182.83 K, Glass	231.6
184.74 K, Glass	234.3
186.65 K, Glass	238
188.56 K, Glass	243.9
190.42 K, Glass	251.8
192.11 K, Glass	273.4
193.57 K, Glass	313.7
194.94 K, Glass	340.7
196.36 K, Liquid	346.8
197.81 K, Liquid	347.7
199.27 K, Liquid	348.4
200.76 K, Liquid	349.4
202.25 K, Liquid	349.9
203.79 K, Liquid	350.5
205.33 K, Liquid	350.9
206.9 K, Liquid	351.5
208.47 K, Liquid	351.9
210.06 K, Liquid	352.4
211.66 K, Liquid	352.8
213.18 K, Liquid	353.2
214.52 K, Liquid	353.7
215.86 K, Liquid	354.1
217.18 K, Liquid	354.5
218.5 K, Liquid	354.9
219.81 K, Liquid	355.4
221.12 K, Liquid	355.7
222.41 K, Liquid	356.1
223.71 K, Liquid	356.5
225 K, Liquid	356.8
226.27 K, Liquid	357.1
227.54 K, Liquid	357.5
228.79 K, Liquid	357.8
230.03 K, Liquid	358.1
231.26 K, Liquid	358.4
232.46 K, Liquid	359
233.66 K, Liquid	359.3
234.84 K, Liquid	359.6
236.02 K, Liquid	359.8
237.19 K, Liquid	360.2
238.37 K, Liquid	360.5
239.54 K, Liquid	361
240.7 K, Liquid	361.3
241.86 K, Liquid	361.5
243.01 K, Liquid	361.9
244.15 K, Liquid	362.2
245.29 K, Liquid	362.5
246.43 K, Liquid	363.1
247.58 K, Liquid	363.5
248.73 K, Liquid	363.9
249.88 K, Liquid	364.2
251.02 K, Liquid	364.5
252.17 K, Liquid	364.8
253.31 K, Liquid	365.5
254.45 K, Liquid	365.8
255.6 K, Liquid	366.1
